Assay results published in patent publication US9790252B2, “2-fluorinated riboses and arabinoses and methods of use and synthesis” (CORNELL UNIVERSITY, priority 2009, dated 2017).

How the values were obtained:
HEK293 and Neuro2A cells = test: Immucillin-H effects on β-ara-Cl-NR toxicity (MTT); type: cell-based; details: 10 μM ImmH with 5-100 μM β-ara-Cl-NR, 12 hours
Experimental: We speculated that like NR, the chloro derivatives might degrade in cells by action of an enzyme that converts it to ribose-1-phosphate. This enzyme is called purine nucleoside phosphorylase (PNP). Immucillin-H (gift of Schramm lab) is a potent inhibitor of PNP. […] Assay: • 1. HEK293 and Neuro2A cells were seeded in 96-well plate at a density of 25,000 cells/well the day before the experiment starts; • 2. After the cells reach 50˜60% confluency, media was taken out, and 100 μL of fresh media was added to each well; • 3. β-ara-Cl-NR (black) and ImmH (bold) were plated according to the following Table 12: • 4. After 12 hours' incubation at 37° C., the media was taken out, 100 μL of fresh media was added to each well along with 20 μL of 5 mg/mL of MTT solution (in PBS); • 5. After 2 hours' incubation at 37° C., media was taken out and 100 μL of DMSO was added to each well, the plate was mixed on shaker for 5 mins; • 6. Absorbance was measured at 570 nm.

[1] = molecular target: T1, cell developmental protein 38 (CD38) (Homo sapiens, UniProt P28907); details: mechanism-based inhibitor; previous studies (Refs. 10, 12); read-out: apparent Ki; cited from earlier work
T1 sequence (P28907 1-300): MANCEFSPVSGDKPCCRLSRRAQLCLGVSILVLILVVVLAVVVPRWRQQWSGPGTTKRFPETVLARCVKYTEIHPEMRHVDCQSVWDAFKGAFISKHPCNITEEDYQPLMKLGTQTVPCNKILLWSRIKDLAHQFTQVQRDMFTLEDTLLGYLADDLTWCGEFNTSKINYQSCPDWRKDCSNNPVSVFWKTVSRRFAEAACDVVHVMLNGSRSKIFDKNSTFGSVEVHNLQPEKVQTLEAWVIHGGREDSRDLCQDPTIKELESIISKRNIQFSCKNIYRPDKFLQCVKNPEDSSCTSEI

HEK293 cells = test: Toxicity to HEK293 cells (MTT); type: cell-based; details: for 100 μM absorbance / 100 μM relative viability: HEK293, 100 μM; for 100 μM absorbance / 100 μM relative viability / 500 μM absorbance / 500 μM relative viability: 12 hours; for 100 μM absorbance / 500 μM absorbance: MTT 1.5 hours, 570 nm; for 100 μM relative viability / 500 μM relative viability: control = 1; for 500 μM absorbance / 500 μM relative viability: HEK293, 500 μM; for EC50: 2′-deoxy-2′-fluoro-nucleosides and nucleotides
Experimental: 1. HEK293 cells were seeded in 96-well plate at a density of 25,000 cells/well the day before the experiment starts;
2. After the cells reach 50˜60% confluency, media was taken out, and 100 μL of fresh media was added to each well;
3. F-derivatives were plated at 100 and 500 μM (in duplicates) concentrations;
4. After 12 hours' incubation at 37° C., the media was taken out, 100 μL of fresh media was added to each well along with 20 μL of 5 mg/mL of MTT solution (in PBS);
5. After 1.5 hours' incubation at 37° C., media was taken out and 100 μL of DMSO was added to each well, the plate was mixed on shaker for 5 mins;
(§1) Absorbance was measured at 570 nm.
(§2) Assay for Determining Toxicity to HEK293 and Neuro2A Cells • 1. HEK293 and Neuro2A cells were seeded in 96-well plate at a density of 25,000 cells/well the day before the experiment starts; • 2. After the cells reach 50˜60% confluency, media was taken out, and 100 μL of fresh media was added to each well; • 3. Cl-derivatives were plated at 100 and 500 μM (in duplicates) concentrations; • 4. After 12 hours' incubation at 37° C., the media was taken out, 100 μL of fresh media was added to each well along with 20 μL of 5 mg/mL of MTT solution (in PBS); • 5. After 2 hours' incubation at 37° C., media was taken out and 100 μL of DMSO was added to each well, the plate was mixed on shaker for 5 mins; • 6. Absorbance was measured at 570 nm.

Neuro2A cells = test: Toxicity to Neuro2A cells (MTT); type: cell-based; details: for 100 μM absorbance / 100 μM relative viability / 500 μM absorbance / 500 μM relative viability: 12 hours; for 100 μM absorbance / 500 μM absorbance: MTT 1.5 hours, 570 nm; for 100 μM relative viability / 500 μM relative viability: control = 1; for EC50: 2′-deoxy-2′-fluoro-nucleosides and nucleotides
Experimental: 6. Neuro2A cells were seeded in 96-well plate at a density of 25,000 cells/well the day before the experiment starts;
7. After the cells reach 50˜60% confluency, media was taken out, and 100 μL of fresh media was added to each well;
8. […]
9. After 12 hours' incubation at 37° C., the media was taken out, 100 μL of fresh media was added to each well along with 20 μL of 5 mg/mL of MTT solution (in PBS);
10. After 1.5 hours' incubation at 37° C., media was taken out and 100 μL of DMSO was added to each well, the plate was mixed on shaker for 5 mins;
as §1
as §2, with “Cl-derivatives were plated at 100 and 500 μM (in duplicates) concentrations; • 4.” left out

SirT2 = molecular target: T2, SirT2 (Homo sapiens, UniProt Q8IXJ6); test: SirT2 activity assay (HPLC of 2′- and 3′-AADPR); type: biochemical; details: 800 μM NAD+, 500 μM H3 peptide, pH 7.5
T2 sequence (Q8IXJ6 1-389): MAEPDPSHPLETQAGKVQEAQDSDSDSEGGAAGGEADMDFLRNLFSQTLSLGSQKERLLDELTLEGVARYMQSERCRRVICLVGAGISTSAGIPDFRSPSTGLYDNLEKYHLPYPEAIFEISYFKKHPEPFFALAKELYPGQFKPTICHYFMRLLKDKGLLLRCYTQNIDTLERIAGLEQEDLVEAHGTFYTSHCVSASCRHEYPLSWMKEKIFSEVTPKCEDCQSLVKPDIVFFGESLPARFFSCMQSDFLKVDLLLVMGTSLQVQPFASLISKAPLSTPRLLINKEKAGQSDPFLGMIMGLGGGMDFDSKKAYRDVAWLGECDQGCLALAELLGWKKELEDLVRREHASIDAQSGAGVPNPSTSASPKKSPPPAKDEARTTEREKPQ
Experimental: Reactions containing 800 μM NAD^+, 500 μM H3 peptide, and 100 mM phosphate buffer at pH 7.5, with varying concentrations of 2′-deoxy-2′-fluoro-nucleosides or nucleotides were initiated by addition of SirT2 enzyme to a concentration of 16.6 μM. Reactions were incubated for 45 mins at 37° C. and quenched by addition of trifluoroacetic acid to pH 2. After centrifugation to remove precipitates, reactions were injected on HPLC for activity analysis. Production of 2′- and 3′-AADPR were analyzed at 260 nm.
SirT2 Activity Assay: Reactions containing 800 μM NAD^+, 500 μM H3 peptide, and 100 mM phosphate buffer at pH 7.5, with varying concentrations of 2′-deoxy-2′-chloro-nucleosides were initiated by addition of SirT2 enzyme to a concentration of 16.6 μM. Reactions were incubated for 45 mins at 37° C. and quenched by addition of trifluoroacetic acid to pH 2. After centrifugation to remove precipitates, reactions were injected on HPLC for activity analysis. Production of 2′- and 3′-AADPR were analyzed at 260 nm.

SirT1 = molecular target: T3, SirT1 (Homo sapiens, UniProt Q96EB6); test: SirT1 activity assay (HPLC of 2′- and 3′-AADPR); type: biochemical; details: 200 μM NAD+, 100 μM JB12 peptide, pH 7.5, 30 mins at 37° C.
T3 sequence (Q96EB6 1-747): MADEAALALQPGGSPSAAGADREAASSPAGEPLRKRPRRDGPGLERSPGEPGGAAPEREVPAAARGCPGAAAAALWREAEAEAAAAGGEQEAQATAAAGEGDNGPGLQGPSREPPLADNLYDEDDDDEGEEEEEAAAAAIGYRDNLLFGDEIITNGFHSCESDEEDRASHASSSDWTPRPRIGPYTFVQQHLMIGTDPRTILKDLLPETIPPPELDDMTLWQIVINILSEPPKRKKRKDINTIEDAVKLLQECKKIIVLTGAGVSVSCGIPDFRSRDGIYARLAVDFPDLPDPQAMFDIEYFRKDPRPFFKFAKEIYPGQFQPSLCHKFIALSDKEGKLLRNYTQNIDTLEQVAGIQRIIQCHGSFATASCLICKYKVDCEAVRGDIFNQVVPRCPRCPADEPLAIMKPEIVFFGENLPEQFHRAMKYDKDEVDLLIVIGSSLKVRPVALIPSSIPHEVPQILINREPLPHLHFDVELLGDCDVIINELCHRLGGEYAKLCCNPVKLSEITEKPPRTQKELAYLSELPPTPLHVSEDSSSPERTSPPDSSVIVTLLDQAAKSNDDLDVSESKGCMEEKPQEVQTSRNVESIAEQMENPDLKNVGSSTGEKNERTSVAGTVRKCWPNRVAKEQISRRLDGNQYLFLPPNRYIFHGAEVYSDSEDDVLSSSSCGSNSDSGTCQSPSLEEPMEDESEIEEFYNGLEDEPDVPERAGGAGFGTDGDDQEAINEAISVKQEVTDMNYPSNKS
Experimental: Reactions containing 200 μM NAD^+, 100 μM JB12 peptide, and 100 mM phosphate buffer at pH 7.5, with varying concentrations of 2′-deoxy-2′-fluoro-nucleosides or nucleotides were initiated by addition of SirT1 enzyme to a concentration of 12.9 μM. Reactions were incubated for 30 mins at 37° C. and quenched by addition of trifluoroacetic acid to pH 2. After centrifugation to remove precipitates, reactions were injected on HPLC for activity analysis. Production of 2′- and 3′-AADPR were analyzed at 260 nm.
SirT1 Activity Assay: Reactions containing 200 μM NAD^+, 100 μM JB12 peptide, and 100 mM phosphate buffer at pH 7.5, with varying concentrations of 2′-deoxy-2′-chloro-nucleosides were initiated by addition of SirT1 enzyme to a concentration of 12.9 μM. Reactions were incubated for 30 mins at 37° C. and quenched by addition of trifluoroacetic acid to pH 2. After centrifugation to remove precipitates, reactions were injected on HPLC for activity analysis. Production of 2′- and 3′-AADPR were analyzed at 260 nm.

| SMILES | effect of PNP inhibition on β-ara-Cl-NR toxicity (HEK293 and Neuro2A cells) | Ki [1] [nM] | 100 μM absorbance (HEK293 cells) | 100 μM relative viability (HEK293 cells) | 500 μM absorbance (HEK293 cells) | 500 μM relative viability (HEK293 cells) | EC50 (HEK293 cells; HEK293) [µM] | 100 μM absorbance (Neuro2A cells) | 100 μM relative viability (Neuro2A cells) | 500 μM absorbance (Neuro2A cells) | 500 μM relative viability (Neuro2A cells) | EC50 (Neuro2A cells) [µM] | SirT2 inhibition (in words) (SirT2) | EC50 (HEK293 cells; Homo sapiens, HEK293, HEK293) [µM] | EC50 (Neuro2A cells; Mus musculus, N2a) [µM] | Ki (SirT1) [µM] |
| --- | --- | --- | --- | --- | --- | --- | --- | --- | --- | --- | --- | --- | --- | --- | --- | --- |
| O=c1[nH]cnc2c([C@@H]3N[C@H](CO)[C@@H](O)[C@H]3O)c[nH]c12 [Immucillin-H] | largely incapable of preventing this toxicity | – | – | – | – | – | – | – | – | – | – | – | – | – | – | – |
| NC(=O)c1ccc[n+]([C@@H]2O[C@H](COP(=O)([O-])O)C(O)C2F)c1 (stereo partly drawn) [ara-F-NMN, 2′-deoxy-2′-fluoro-arabino-nicotinamide mononucleotide] | – | 61 | 1.267 | 0.5574 | 0 | 0 | 88 | 2.126 | 0.874 | 0.0143 | 0.006 | 164 | no inhibition | – | – | – |
| NC(=O)c1ccc[n+]([C@@H]2O[C@H](COP(=O)([O-])OP(=O)(O)OC[C@H]3O[C@@H](n4cnc5c(N)ncnc54)[C@H](O)[C@@H]3O)[C@@H](O)C2(F)F)c1 [gem-diF-NAD, 2′-deoxy-2′,2′-difluoro-NAD^+] | – | – | 1.797 | 0.7905 | 1.556 | 0.6844 | – | 1.5765 | 0.648 | 1.1916 | 0.49 | – | – | 1130 | 400 | 60 |
